Series [1] deals with NB4 human promyelocytic leukaemia. In words: Cytotoxicity on NB4 tumour cells (sulphorodamine B). In kind it is cell-based. As for the experimental part: (§1) To test the effects of the compounds on cell growth, NB4 human promyelocytic leukaemia, NCI-H460 non-small cell carcinoma cells and HCT-116 human colon carcinoma cells were used. NB4 and NCI-H460 tumour cells were grown RPMI 1640 containing 10% fetal bovine serum (GIBCO), whereas HCT-116 tumour cells were grown in McCoy's 5A containing 10% fetal bovine serum (GIBCO).
(§2) Tumour cells were seeded in 96-well tissue culture plates (Corning) at approximately 10% confluence and were allowed to attach and recover for at least 24 h. […] The plates were incubated for 24 h at 37° C. At the end of the treatment, for NB4 tumour cells in suspension, the procedure was performed as follows: medium culture was removed by centrifugation of the plates at 1600×g for 10 min and the surnatant was removed. 250 μl PBS were added, then the plates were centrifuged at 1600×g for 10 min, the surnatant was removed. 200 μl/well of medium culture RPMI 1640 containing 10% FCS were added and the plates were incubated at 37° C. for other 48 h. The plates were centrifuged again at 1600×g for 10 min, the medium culture was removed and 200 μl PBS and 50 μl of cold 80% TCA were added. The plates were incubated on ice for at least 1 h. TCA was removed, the plates were washed 3 times for immersion in distilled-water and dried on paper and at 40° C. for 5 min. Then 200 μl of 0.4% sulphorodamine B in 1% acetic acid were added. The plates were incubated at room temperature for other 30 min. Sulphorodamine B was removed, the plates were washed for immersion in 1% acetic acid for 3 times, then they were dried on paper and at 40° C. for 5 min. Then 200 μl Tris 10 mM were added, the plates were kept under stirring for 20 min. The survival cell was determined as optical density by a Multiskan spectrofluorimeter at 540 nm. For the tumour cells in adhesion (NCI-H460 and HCT-116), the procedure was as above mentioned, except that at the end of the treatment, the plates were washed by remotion of the surnatant and addition of PBS 3 times without centrifugation. Also the last day of the assay, the surnatant was removed without centrifugation.
(§3) The amount of cells killed was calculated as the percentage decrease in sulphorodamine B binding compared with control cultures.

The subject of series [2] is HCT-116 human colon carcinoma cells. In words: Cytotoxicity on HCT-116 tumour cells (sulphorodamine B). The series is classed as cell-based. The settings on record: read-out: IC50 ± SD, HCT-116 (concentration which inhibits the 50% of cell survival), 24 h treatment, then other 48 h in drug-free medium. As to the method:
as §1, §2, §3

Series [3] deals with NCI-H460 non-small cell carcinoma cells. In words: Cytotoxicity on NCI-H460 tumour cells (sulphorodamine B). In kind it is cell-based, human. The settings on record: for IC50: 24 h treatment, then other 48 h in drug-free medium, sulphorodamine B; for cytotoxic effect on survival of NCI-H460 tumour cells (in words): comparison among the compounds. As to the method: as §1, §2, §3

The mark [4] stands for this setting: Homo sapiens, read-out: IC50 ± SD, NB4 (concentration which inhibits the 50% of cell survival), NB4 tumour cells, 24 h treatment, then other 48 h in drug-free medium.
Where [5] appears, read: read-out: IC50 ± SD, NB4 (concentration which inhibits the 50% of cell survival), NB4 tumour cells, 24 h treatment, then other 48 h in drug-free medium.
Where [6] appears, read: Homo sapiens, NCI-H460, read-out: IC50 ± SD, NCI-H460 (concentration which inhibits the 50% of cell survival), NCI-H460 tumour cells.

SMILES strings stand for the structures. Counter-ions that a name gives are not always drawn. Like-named read-outs stand apart in the source and are kept apart here.

Regarding `O=C(/C=C/c1ccc(C=NNC(=O)c2ccc(Cl)cc2)cc1)NO` [ST2888, (2E)-N-hydroxy-3-(4-{[(4-chlorobenzoyl)hydrazono]-methyl}phenyl)acrylamide], the IC50 in series [1] (setting [4]) is 600 to 800 nM; in series [1] (setting [5]), 800 ± 20 nM; in series [2] (Homo sapiens), 1800 ± 100 nM; in series [3] (setting [6]) it was 3400 ± 300 nM.
On to `O=C(O)/C=C/c1ccc(C=NOCc2ccccc2)cc1` [ST3076, (2E)-3-(4-{[(benzyloxy)imino]methyl}phenyl)acrylic acid], for which the IC50 in series [1] (setting [4]) and in series [2] (Homo sapiens) was greater than 20000 nM each time.
In the case of `O=C(/C=C/c1ccc(C=NOCCN2CCOCC2)cc1)NO` [ST3050, (2E)-N-hydroxy-3-{4-[(2-morpholin-4-ylethoxyimino)methyl]-phenyl}-acryl-amide], the IC50 in series [1] (setting [4]) was 1400 to 2900 nM; in series [1] (setting [5]), 1700 ± 200 nM; in series [2] (Homo sapiens), 1800 ± 100 nM; in series [3] (setting [6]), 2900 ± 400 nM.
In the same order, the values of `O=C(/C=C/c1ccc(C=NOCc2ccc([N+](=O)[O-])cc2)cc1)NO` [ST2987, (2E)-N-hydroxy-3-[4-({[(4-nitrobenzyl)oxy]imino}-methyl)phenyl]acrylamide] are 600 to 800 nM, 800 ± 10 nM, 1200 ± 200 nM and 2600 ± 100 nM.
As for `Cl.O=C(/C=C/c1cccc(C=NOCCN2CCOCC2)c1)NO` [ST3576, (2E)-N-hydroxy-3-{3-[(2-morpholin-4-ylethoxyimino)methyl]-phenyl}-acryl-amide hydrochloride], the IC50 is 1400 to 2900 nM in series [1] (setting [4]); 1890 ± 80 nM in series [1] (read-out: IC50 ± SD, NB4 (concentration which inhibits the 50% of cell survival), NB4 tumour cells, 24 h treatment, then other 48 h in drug-free medium, hydrochloride); 4000 ± 500 nM in series [2] (Homo sapiens); 6600 ± 800 nM in series [3] (setting [6]). Moreover, in series [3] (NCI-H460 tumour cells), the “cytotoxic effect on survival of NCI-H460 tumour cells (in words)” value (from here on “cytotoxic effect on survival”) is “minor cytotoxic effect”.
For `O=C(/C=C/c1ccc(C=NO)cc1)NO` [ST2983, (2E)-N-hydroxy-3-{4-[(hydroxyimino)methyl]phenyl}acrylamide], the IC50 in series [2] (Homo sapiens) is 3500 ± 300 nM; in series [3] (setting [6]) it was 6300 ± 400 nM. The “cytotoxic effect on survival” value in series [3] (NCI-H460 tumour cells) is reported as “minor cytotoxic effect”.
As for `O=C(/C=C/c1ccc(C=NOCc2c(F)c(F)c(F)c(F)c2F)cc1)NO` [ST2986, (2E)-N-hydroxy-3-[4-({[(pentafluorobenzyl)oxy]imino}-methyl)phenyl]-acryl-amide], the IC50 was determined as 700 ± 70 nM in series [1] (setting [5]); 2400 ± 100 nM in series [2]; 1600 ± 70 nM in series [3] (read-out: IC50 ± SD, NCI-H460 (concentration which inhibits the 50% of cell survival), NCI-H460 tumour cells).
Regarding `O=C(/C=C/c1ccc(C=NOc2ccccc2)cc1)NO` [ST2985, (2E)-N-hydroxy-3-{4-[(phenoxyimino)methyl]phenyl}acrylamide], the IC50 was 1400 to 2900 nM in series [1] (setting [4]), 2700 ± 90 nM in series [1] (setting [5]), 3700 ± 400 nM in series [2] (Homo sapiens) and 5100 ± 300 nM in series [3] (setting [6]). In series [3] (NCI-H460 tumour cells), the “cytotoxic effect on survival” value is on record as “minor cytotoxic effect”.
Turning to `O=C(CCc1ccc(C=NOCc2ccc([N+](=O)[O-])cc2)cc1)NO` [ST3330, N-hydroxy-3-[4-({[(4-nitrobenzyl)oxy]imino}methyl)phenyl]propanamide], the values for the IC50 in series [1] (setting [4]), in series [2] (Homo sapiens) and in series [3] (setting [6]) were 950 ± 60 nM, 3100 ± 100 nM and 7700 ± 1000 nM, respectively. For the same molecule, in series [3] (NCI-H460 tumour cells), the “cytotoxic effect on survival” value is listed as “minor cytotoxic effect”.
`O=C(/C=C/c1ccc(C=NOCc2ccccc2)cc1)NO` [ST2840, (2E)-3-(4-{[(benzyloxy)imino]methyl}phenyl)-N-hydroxyacrylamide]: the IC50 was 600 to 800 nM in series [1] (setting [4]), 600 ± 6 nM in series [1] (setting [5]), 2800 ± 200 nM in series [2] (Homo sapiens) and 1600 ± 100 nM in series [3] (setting [6]).
In the case of `Nc1ccccc1NC(=O)/C=C/c1ccc(C=NOCCN2CCOCC2)cc1` [ST3573, (2E)-N-(2-Amino-phenyl)-3-{4-[(2-morpholin-4-yl-ethoxyimino)methyl]-phenyl}-acrylamide hydrochloride], the IC50 is 8870 ± 600 nM in series [1] (setting [4]), greater than 20000 nM in series [2] (Homo sapiens) and greater than 20000 nM in series [3] (setting [6]).
With `COC(=O)c1ccc(CON=Cc2ccc(/C=C/C(=O)NO)cc2)cc1` [ST3049, (2E)-N-hydroxy-3-[4-({[(4-methoxycarbonylbenzyl)oxy]imino}-methyl)phenyl]-acrylamide], the IC50 in series [1] (setting [4]) was 600 to 800 nM; in series [1] (setting [5]), 800 ± 90 nM; in series [2] (Homo sapiens), 1700 ± 100 nM; in series [3] (setting [6]), 1700 ± 100 nM.
As for `Nc1ccccc1NC(=O)/C=C/c1ccc(C=NOCc2ccc([N+](=O)[O-])cc2)cc1` [ST3070, (2E)-N-(2-aminophenyl)-3-[4-({[(4-nitrobenzyl)oxy]imino}-methyl)phenyl]-acrylamide], the IC50 in series [1] (setting [4]) was greater than 20000 nM; in series [2] (Homo sapiens) it was 33400 ± 3900 nM; in series [3] (setting [6]), 200000 nM.
For `C=CCON=Cc1ccc(/C=C/C(=O)NO)cc1` [ST2984, (2E)-N-hydroxy-3-(4-{[(allyloxy)imino]methyl}phenyl)acrylamide], the IC50 in series [1] (setting [4]) is 1400 to 2900 nM; in series [1] (setting [5]), 1400 ± 70 nM; in series [2] (Homo sapiens), 3500 ± 70 nM; in series [3] (setting [6]), 3200 ± 90 nM.
Regarding `O=C(/C=C/c1ccc2[nH]ccc2c1)NO` [ST2880, (2E)-N-hydroxy-3-(1H-indol-5-yl)acrylamide], the IC50 in series [1] (setting [4]) was 1400 to 2900 nM; in series [1] (setting [5]), 1800 ± 20 nM; in series [2] (Homo sapiens), 2700 ± 300 nM; in series [3] (setting [6]) it was 5900 ± 500 nM. Moreover, the “cytotoxic effect on survival” value in series [3] (NCI-H460 tumour cells) is on record as “minor cytotoxic effect”.
As to `O=C(O)/C=C/c1ccc(C=NOCc2ccc([N+](=O)[O-])cc2)cc1` [ST3075, (2E)-3-[4-({[(4-nitrobenzyl)oxy]imino}-methyl)phenyl]acrylic acid], the results for the IC50 in series [1] (setting [4]), in series [2] (Homo sapiens) and in series [3] (setting [6]) were greater than 20000 nM, greater than 20000 nM and 21300 ± 3000 nM, respectively.

The record behind these values is patent publication US7816386B2, “Cinnamic, phenylpropiolic and phenylpropanoic acid derivatives useful as anti-tumor agents” (Sigma-Tau Industrie Farmaceutiche Riunite S.p.A., priority 2005, dated 2010).
